Measurements: a melting point compilation (Tetko et al.; mined from patent text by program, amines drawn as free bases though some values may be those of a salt)

SMILES | melting point [°C]
Cc1nc(C(F)(F)F)ccc1C(=O)C1=C(O)C(C)(C)CCC1=O | 75 to 77
COC(=O)CCCC(=O)Nc1cccc(Br)n1 | 128 to 131
NC(Cc1ccccc1)C(=O)Nc1nc2ccccc2c(=O)o1 (stereo not drawn) | 215 to 216
CC(=O)CC(=O)C=Cc1ccc2[nH]ccc2c1 | 136 to 137
O=C(CSc1ccc(Cl)c(Cl)c1)C12CC3CC(CC(C3)C1)C2 | 105 to 110
CC(C)(C)C(=O)OCn1cnc2c(OCc3ccccc3)nc(N)nc21 | 161 to 162
CCOC(=O)c1cnn2c1NCC=C2c1cccc(C(F)(F)F)c1 | 108 to 110
O=C(N[C@@H](CO)c1ccccc1)c1cccc(I)c1 | 154 to 156
CS(=O)(=O)Nc1cccc(Nc2nc(NCCO)c3nc[nH]c3n2)c1 | 163 to 166
Cc1cc(-c2cc(C(C)(C)C)[nH]n2)c(F)cc1Cl | 138
O=C1N[C@H](/C=C/c2ccccc2)[C@@H]1N1C(=O)c2ccccc2C1=O (relative stereo) | 168 to 170
CC(C)(C)OC(=O)C1(Cl)OC1c1ccc([N+](=O)[O-])cc1 (stereo not drawn) | 60
CCCCOC(=O)COc1ccc(C(=O)Nc2ccc(C)cc2Sc2ccccc2-c2nnn[nH]2)cc1 | 161 to 162
CCNC(=O)ON=C1N=C(C)C(C)(C)S1 | 84 to 86
COc1ccc2c(c1)C(=O)c1c-2c(Cl)nc2ccc(F)cc12 | 149 to 150
COCCOC(=O)COc1ccc(C(=O)[C@H](COC(C)(C)C)NC(=O)c2ccc(C(=N)NC(=O)OC(C)(C)C)cc2)cc1 | 174
N#Cc1c(-c2ccc(Cl)cc2)c(-c2ccc(Cl)cc2)nn(CCO)c1=O | 122 to 123
O=C(NC1CCN(C(=O)CCCC2(C(=O)NCC(F)(F)F)c3ccccc3-c3ccccc32)CC1)c1ccccc1Oc1ccccc1 | 96 to 98
CCC(=NO)C(C)(C)NCCCN | 72 to 74
O=c1n(-c2ccc(C(F)(F)F)cc2)c(=O)n2n1CC(c1ccccc1)C2c1ccc(Cl)cc1 (stereo not drawn) | 148 to 150
CCC1c2cccn2-c2ccc(F)cc2N1S(=O)(=O)c1cc(C)c(O)c(C)c1 (stereo not drawn) | 216 to 218
CCC(=O)NC[C@H]1CN(c2ccc(C3CCS(=O)(=O)CC3)c(F)c2)C(=O)O1 | 200 to 201
CCOC(=O)N(c1cccc(C(F)(F)F)c1)c1ccccc1N | 105 to 108
COc1ccc(-c2[nH]c(C(N)(C(F)(F)F)C(F)(F)F)nc2-c2ccc(F)cc2)cc1 | 123 to 124
CCOC(=O)c1coc2c(OC)ccc(C(=O)Cc3c(Cl)cncc3Cl)c12 | 142 to 143

SMILES | melting point [°C]
Cc1ccc(C)c(OCCCC(C)(C)C(=O)Nc2ccc3c(c2)OCO3)c1 | 89 to 90
O=C(O)CCc1cn(Cc2ccc(OCc3ccccc3)cc2)nc1-c1ccccc1 | 147 to 148
CCc1nc(N)nc(N)c1CCCCc1cc(Cl)c(Cl)cc1Cl | 158 to 163
Cc1nccc2[nH]c(=O)c(O)cc12 | > 320
CS(=O)(=O)c1cc(Cl)cc(-c2cccnc2-c2cccnc2)c1 | 135
O=C(NCC1CCCCC1)[C@@H]1CCCN(c2cccc3c2C(=O)N(Cc2ccncc2)C3=O)C1 | 172 to 173
CSc1ccc(-c2ccc(C(=O)Nc3cc4ncc(CN5CCCC5)cc4cc3C)cc2)cc1 | 198
COc1ccc(/C=C/C(=O)C2C(=O)CC(c3ccc(OC)cc3)C([N+](=O)[O-])C2c2ccc(OC)cc2)cc1 (stereo not drawn) | 200 to 202
CSC1=Nc2ccccc2Cc2nccn21 | 200 to 201
CCCCCCCc1ccc(-c2ccc(N)cc2)cc1 | 79
COc1ccc(C(=O)NC[C@@H](C(=O)NO)N2CCN(S(C)(=O)=O)CC2)cc1 | 158
CNC(=O)Nc1cc(C(C)(C)C)c2c(c1)C(C)(C)CS2 | > 150
CCCCCc1nc2cnc3ccccc3c2[nH]1 | 142 to 143
CC(C)C(NC(=O)Cn1cccc(NC(=O)Nc2ccccc2)c1=O)C(=O)C(F)(F)F (stereo not drawn) | 94 to 106
CCOCCn1cc2c(C3C(=O)Nc4ccc(Br)cc43)nc(Cl)nc2n1 (stereo not drawn) | 260 to 263
O=c1c(NCCCOc2cccc(CN3CCCCC3)c2)c(NCc2cccnc2)c1=O | 174 to 178
O=C1CNc2ncc(I)cc2N1Cc1cccc(F)c1C(F)(F)F | > 200
CC1=C(C(=O)OCCN(C)Cc2ccccc2)C(c2cccc([N+](=O)[O-])c2)C(P2(=O)OCCCO2)=C(C)N1 (stereo not drawn) | 139 to 140
O=C(O)c1ccccc1C(=O)c1ccc(O)cc1 | 124 to 128
CCON=C(C)c1ccc2c(c1)ncn2-c1cccc(COCc2ncnn2C)c1 | 130 to 134
CN(C)CC(=O)N(C)c1ccc(OCC(=O)N[C@@H](CC(N)=O)C(=O)N[C@@H](Cc2ccccc2)[C@H](O)C(=O)N2CCC[C@H]2C(=O)NC(C)(C)C)cc1 | 129 to 135
Cc1cc(-c2cc3nccnc3[nH]2)cn1C | 253
NC(=O)c1ccc(-c2cccc3cc(Cc4cccc(C(F)(F)F)c4)sc23)nc1 | 222 to 223
Oc1ccc2c(c1)OCC(c1ccc(F)cc1)C2c1ccc(OCCN2CCCCC2)cc1 (stereo not drawn) | 146 to 147
CNC(=S)NN1Cc2c(C)ccc(C)c2C1 | 177 to 178

SMILES | melting point [°C]
CCOc1cnc(N[N+](=O)[O-])[nH]c1=O | 189 to 192
CCCNc1c(C#N)cnn1-c1ccc(Cl)c(Cl)c1Cl | 95 to 98
COc1ccc(S(=O)(=O)Nc2cccnc2Nc2ccc(OC(=O)c3ccccc3)cc2)cc1 | 208 to 210
Cc1cc2ccccc2nc1C(=O)O | 141 to 142
C#Cc1cnn2c(C3CC3)cc(-c3ccc(Cl)c(Cl)c3)nc12 | 194 to 196
COc1cc(Nc2nccc(-c3ccc(NC(=O)OC(C)(C)C)cc3)n2)cc(OC)c1OC | 158 to 159
COc1ccc(-c2cc(COCCc3cccc(NS(=O)(=O)C(F)(F)F)c3)ccc2F)cc1 | 70 to 71
CN(CCOc1ccc(CC(OCC(F)(F)F)C(=O)O)cc1)c1nc2ccccc2o1 (stereo not drawn) | 116 to 117
COC(=O)C(Cl)=Cc1cc(-n2c(OC)nc(C(F)(F)F)cc2=O)ccc1Cl | 151 to 152
CC(=O)C(=O)N1C(C(=O)OCc2ccccc2)CC2CCCCC21 (stereo not drawn) | 50 to 55
Cc1oc(-c2ccccc2)nc1CCC(=O)c1ccc(CCCC2OC(=O)NC2=O)cc1 (stereo not drawn) | 184 to 185
Nc1cccc(NC(=O)OCc2cc3cc(-c4ccc(F)cc4)ccc3o2)c1C(=O)O | 176 to 178
CC(=O)NNc1ccc(N=Cc2ccccc2)cc1 | 172 to 174
CN1CCc2cc(S(=O)(=O)Nc3cnc4cc(Cl)ccc4n3)ccc21 | 189 to 190
CCCOc1ccc(S(=O)(=O)N2CCN(CCO)CC2)cc1C(=O)OC | 88 to 89
COc1ccc(-c2cc3cc(Br)ccc3o2)cc1 | 189
CCOC(=O)C1=C(C)NC(C)=C(C(=O)OCC)C1c1c(SC)sc2ccccc12 | 177 to 179
CCCCCCCNC(=O)N(C)c1cccc(-c2ccc(C=CC(=O)O)c(F)c2)c1 | 148 to 149
CN1Cc2c(-c3nnc(CCl)o3)ncn2-c2cccc(Cl)c2C1=O | 201 to 203
CCN(CC)CCNc1nc2cccnc2n(-c2ccc(Cl)cc2)c1=O | 149 to 150
O=C1OC(c2ccccc2)=CC1=Cc1cccs1 | 141
CNC1=NS(=O)N=C1NCCSCc1csc(NC(=N)N)n1 (stereo not drawn) | 175 to 177
O=S(=O)(Nc1ccc(Oc2cccc3cccnc23)c(Cl)c1)c1cccc(C(F)(F)F)c1 | > 245
CN(C)c1ccccc1CS(=O)c1cnc2ccccc2n1 (stereo not drawn) | 114 to 115
O=C(Nc1ccccc1C(F)(F)F)ONC1=Nc2ccc(Cl)cc2C(c2ccccc2)=NC1 | 190

SMILES | melting point [°C]
CSCc1c[nH]c(=O)[nH]c1=O | 239 to 241
O=C(c1ccccc1)c1cc[nH]c1 | 96 to 97
CS(=O)(=O)Nc1ccc(C=CC(=O)N2CCc3c([nH]c4ccccc34)C2c2ccc3c(c2)OCO3)cc1 (stereo not drawn) | 203
Cn1cc(-c2ccccc2)c(=O)c(-c2cc(Cl)ccc2Cl)c1 | 156
CC(=O)c1ccc(Oc2ccc(Cl)cc2)cc1 | 66 to 68
O=C(O)[C@H](Cc1ccccc1)N[C@@H](Cc1c[nH]c2ccccc12)C(=O)OCc1ccccc1 | 147 to 150
Cc1ccc2nc3c(C)cc(=O)c(Cl)c-3sc2c1 | 215 to 218
CC(Br)C(=O)NS(=O)(=O)c1ccc2c(c1)CC(C)(C)O2 (stereo not drawn) | 125 to 128
CCC12CCCN3CCC4(C(=C(C(=O)OC)C1)Nc1ccccc14)C32 (stereo not drawn) | 124 to 125
O=C1NCCc2c(-c3cccc(CCO)c3)[nH]c3cccc1c23 | 188
CCOC(=O)c1ccc(-c2[nH]nc3c2C(=O)c2c(NC(N)=O)cccc2-3)s1 | > 280
COc1ccccc1CC(=O)c1ccc(C(C)C)c(OS(N)(=O)=O)c1C(C)C | 159 to 161
COC(=O)/C=C/n1cnc2ccc(Cl)cc2c1=O | 171 to 172
COc1ccc(-c2c[nH]c(=S)n2O)cc1 | 150
CONC(=O)c1ccc(-c2ccc3nnn(Cc4ccc5ncccc5c4)c3n2)cc1F | 197 to 199
O=C(CCCCCN1CCN(c2cccc3c2OCCCO3)CC1)N1Cc2ccccc2C1 | 131
CCCc1nnc2c(NC3CCCC3)nc3ccccc3n12 | 186 to 188
COc1ccc2c(c1)c(CCOC(=O)c1cc(O)c3c(c1)C(=O)c1cccc(O)c1C3=O)c(C)n2C(=O)c1ccc(Cl)cc1 | 139 to 146
O=C(O)CCCCNC(=O)c1ccccc1NC(=O)c1ccccc1O | 168 to 170
CC(=O)NC1Cc2cccc3cccc(c23)C1 | 180 to 181
O=C(O)COc1ccc2cc(CNC(=O)c3cnn(-c4ccc(Cl)cc4)c3C(F)(F)F)ccc2c1Br | 245
NS(=O)(=O)c1c(Cl)cccc1-c1ccccc1Cl | 151 to 153
Nc1nc2ccccc2c2c1ncn2CCCCNC(=O)c1cccc2cccnc12 | 91 to 93
